In a compilation of properties of binary mixtures (doi:10.1016/j.jct.2017.07.022):

Experiment: xn = mol fraction of the nth substance listed
Conditions: 100 kPa

CC[n+]1ccccc1.N#C[N-]C#N + CC(C)O
viscosity [mPa·s]
Conditions | x2 = 0 | x2 = 0.1055 | x2 = 0.1999 | x2 = 0.2997 | x2 = 0.4023 | x2 = 0.499 | x2 = 0.5998 | x2 = 0.7006 | x2 = 0.8007 | x2 = 0.8997
288.15 K | 25.9 | 21.3 | 18.3 | – | 12.3 | 10 | 8.04 | 6.15 | 4.78 | 3.75
293.15 K | 22.1 | – | 15.6 | 12.9 | 10.7 | 8.68 | 7.02 | 5.39 | 4.18 | 3.28
298.15 K | 18.9 | 15.6 | 13.4 | 11.2 | – | 7.61 | 6.19 | 4.77 | 3.7 | 2.89
303.15 K | 16.4 | 13.5 | 11.6 | 9.83 | 8.17 | 6.72 | – | 4.24 | 3.29 | 2.55
308.15 K | 14.3 | 11.7 | 10.1 | 8.69 | 7.24 | 6 | 4.91 | – | 2.95 | –
313.15 K | – | 10.3 | 8.9 | 7.72 | 6.47 | 5.38 | – | – | – | 2.03
318.15 K | 11 | 9.08 | 7.9 | 6.92 | 5.82 | 4.85 | – | – | 2.41 | 1.83

CC[n+]1ccccc1.N#C[N-]C#N + CCCO
viscosity [mPa·s]
Conditions | x2 = 0 | x2 = 0.1095 | x2 = 0.1947 | x2 = 0.3011 | x2 = 0.4029 | x2 = 0.5008 | x2 = 0.6003 | x2 = 0.702 | x2 = 0.8012 | x2 = 0.9
288.15 K | 25.9 | – | – | 15.2 | 12 | 9.7 | 7.73 | 5.99 | – | 3.48
293.15 K | – | 17.7 | 15.3 | – | 10.4 | 8.45 | 6.78 | 5.28 | – | 3.09
298.15 K | 18.9 | 15.3 | 13.1 | 11.7 | 9.11 | – | 6 | 4.7 | 3.61 | –
303.15 K | 16.4 | 13.2 | 11.3 | 10.3 | – | 6.6 | 5.34 | – | 3.24 | 2.48
308.15 K | 14.3 | 11.4 | – | 9.11 | 7.14 | – | 4.79 | 3.78 | – | –
313.15 K | 12.5 | 9.9 | – | 8.13 | 6.39 | – | 4.33 | 3.42 | 2.65 | 2.03
318.15 K | – | 8.74 | 7.85 | 7.35 | 5.76 | – | 3.93 | – | 2.42 | –

CC[n+]1ccccc1.N#C[N-]C#N + CCO
viscosity [mPa·s]
Conditions | x2 = 0 | x2 = 0.1008 | x2 = 0.1974 | x2 = 0.3008 | x2 = 0.3994 | x2 = 0.5058 | x2 = 0.5994 | x2 = 0.6996 | x2 = 0.7999 | x2 = 0.9011
288.15 K | – | – | 16.8 | 13.4 | 10.5 | 7.99 | 6.13 | 4.66 | 3.05 | 2.24
293.15 K | 22.1 | – | 14.4 | 11.7 | 9.23 | 7.07 | 5.46 | 4.22 | 2.78 | 2.02
298.15 K | – | 15.4 | – | – | 8.19 | 6.31 | 4.91 | 3.85 | – | 1.86
303.15 K | 16.4 | 13.3 | 10.9 | 9.23 | 7.34 | 5.69 | 4.47 | 3.49 | 2.31 | –
308.15 K | 14.3 | 11.5 | 9.58 | 8.28 | 6.61 | – | 4.08 | 3.19 | 2.12 | 1.55
313.15 K | 12.5 | 10.1 | 8.51 | 7.45 | – | – | – | – | 1.94 | 1.42
318.15 K | 11 | – | 7.62 | 6.74 | – | 4.31 | 3.44 | 2.68 | 1.79 | 1.31

CC(C)O + CC[n+]1ccccc1.N#C[N-]C#N
x1 = 1
Conditions | viscosity [mPa·s]
288.15 K | 2.83
293.15 K | 2.42
298.15 K | 2.08
303.15 K | 1.8
308.15 K | 1.56
313.15 K | 1.33
318.15 K | 1.17

CCCO + CC[n+]1ccccc1.N#C[N-]C#N
x1 = 1
Conditions | viscosity [mPa·s]
293.15 K | 2.22
298.15 K | 1.97
303.15 K | 1.75
308.15 K | 1.56
313.15 K | 1.36
318.15 K | 1.23

CCO + CC[n+]1ccccc1.N#C[N-]C#N
x1 = 1
Conditions | viscosity [mPa·s]
293.15 K | 1.17
298.15 K | 1.07
303.15 K | 0.975
308.15 K | 0.89
313.15 K | 0.815
318.15 K | 0.747
